The text below walks through data of patent US7544707B2, “Bicyclic derivatives as PPAR modulators” (Eli Lilly and Company, priority 2003, dated 2009).

Each structure is given as a SMILES string.

`CC(C)(Sc1ccc(OC(CCC(F)(F)F)c2cccc3c2cnn3-c2ccc(C(F)(F)F)cc2)cc1)C(=O)O` (racemic) [Example 89, (+/−)-2-Methyl-2-(4-{4,4,4-trifluoro-1-[1-(4-trifluoromethylphenyl)-1H-indazol-4-yl]butoxy}phenylsulfanyl)propionic Acid] returned a melting point of over 260 °C.
In the case of `O=C(O)Cc1cccc(SCc2cccc3cn(-c4ccc(C(F)(F)F)cc4)nc23)c1` [Example 4, 3-[2-(4-Trifluoromethylphenyl)-2H-indazol-7-ylmethylsulfanyl]phenylacetic Acid], the melting point lay within 147 to 149 °C.
Regarding `CC(Sc1ccc(OC(C)(C)C(=O)O)cc1)c1ccc2nn(-c3ccc(C(F)(F)F)cc3)cc2c1` (racemic) [Example 68, (+/−)-2-Methyl-2-(4-{1-[2-(4-trifluoromethylphenyl)-2H-indazol-5-yl]ethylsulfanyl}phenoxy)propionic Acid], the melting point was 109 to 111 °C.
On to `O=C(O)Cc1csc2cc(SCc3cccc4cn(-c5ccc(C(F)(F)F)cc5)nc34)ccc12` [Example 5, 6-[2-(4-Trifluoromethylphenyl)-2H-indazol-7-ylmethylsulfanyl]benzo[b]thiophen-3-ylacetic Acid], for which the melting point was in the range of 141 to 143 °C.
With `CC(C)(Sc1ccc2c(CC(=O)O)csc2c1)c1cccc2cn(-c3ccc(C(F)(F)F)cc3)nc12` [Example 17, 6-{1-Methyl-1-[2-(4-trifluoromethylphenyl)-2H-indazol-7-yl]ethylsulfanyl}benzo[b]thiophen-3-ylacetic Acid], the melting point lay in the range of 120 to 122 °C.
Turning to `Cc1cc(SC(C)(C)c2cccc3cn(-c4ccc(C(F)(F)F)cc4)nc23)ccc1OCC(=O)O` [Example 14, 2-Methyl-4-{1-methyl-1-[2-(4-trifluoromethylphenyl)-2H-indazol-7-yl]ethylsulfanyl}phenoxyacetic Acid], the melting point fell in the range of 118 to 120 °C.
Then `CC(C)(Oc1ccc(SCCc2cccc3cn(-c4ccc(C(F)(F)F)cc4)nc23)cc1)C(=O)O` [Example 50, 2-Methyl-2-(4-{2-[2-(4-trifluoromethylphenyl)-2H-indazol-7-yl]ethylsulfanyl}phenoxy)propionic Acid], with 112 to 114 °C; and `CCc1cc(OC(C)c2cccc3cn(-c4ccc(C(F)(F)F)cc4)nc23)ccc1CCC(=O)O` (racemic) [Example 13], with 61 to 63 °C.
Consider `CC(Sc1ccc(OC(C)(C)C(=O)O)cc1)c1cccc2c1cnn2-c1ccc(C(F)(F)F)cc1` (racemic) [Example 86, (+/−)-2-Methyl-2-(4-{1-[1-(4-trifluoromethylphenyl)-1H-indazol-4-yl]ethylsulfanyl}phenoxy)propionic Acid], for which the melting point lay within 85 to 90 °C.
Regarding `CCc1cc(SCc2cccc3cn(-c4ccc(C(F)(F)F)cc4)nc23)ccc1OCC(=O)O` [Example 3, 2-Ethyl-4-[2-(4-trifluoromethylphenyl)-2H-indazol-7-ylmethylsulfanyl]phenoxyacetic Acid], the melting point was 159 to 161 °C.
Turning to `Cc1cc(SC(C)c2cccc3cn(-c4ccc(C(F)(F)F)cc4)nc23)ccc1OC(C)(C)C(=O)O` (racemic) [Example 41, (+/−)-2-Methyl-2-(2-methyl-4-{1-[2-(4-trifluoromethylphenyl)-2H-indazol-7-yl]ethylsulfanyl}phenoxy)propionic Acid], the melting point lay within 140 to 142 °C.
With `CC(Oc1ccc(OC(C)(C)C(=O)O)cc1)c1ccc2cn(-c3ccc(C(F)(F)F)cc3)nc2c1` (racemic) [Example 58, (+/−)-2-Methyl-2-(4-{1-[2-(4-trifluoromethylphenyl)-2H-indazol-6-yl]ethoxy}phenoxy)propionic Acid] the figure was 144 to 146 °C; with `CC(Sc1ccc(OC(C)(C)C(=O)O)cc1)c1cccc2nn(-c3ccc(C(F)(F)F)cc3)cc12` (racemic) [Example 73, (+/−)-2-Methyl-2-(4-{1-[2-(4-trifluoromethylphenyl)-2H-indazol-4-yl]ethylsulfanyl}phenoxy)propionic Acid], 148 to 150 °C.
Then `Cc1cc(SC(C)c2cccc3nn(-c4ccc(C(F)(F)F)cc4)cc23)ccc1OC(C)(C)C(=O)O` (racemic) [Example 72, (+/−)-2-Methyl-2-(2-methyl-4-{1-[2-(4-trifluoromethylphenyl)-2H-indazol-4-yl]ethylsulfanyl}phenoxy)propionic Acid], with 153 to 155 °C.
In turn, `Cc1cc(OC(c2ccccc2)c2cccc3c2cnn3-c2ccc(C(F)(F)F)cc2)ccc1OC(C)(C)C(=O)O` (racemic) [Example 91, (+/−)-2-Methyl-2-(2-methyl-4-{phenyl-[1-(4-trifluoromethylphenyl)-1H-indazol-4-yl]methoxy}phenoxy)propionic Acid] returned a melting point of 140 to 145 °C.
Take `Cc1cc(SC(C)(C)c2cccc3cn(-c4ccc(C(F)(F)F)cc4)nc23)ccc1CCC(=O)O` [Example 15, 3-(2-Methyl-4-{1-methyl-1-[2-(4-trifluoromethylphenyl)-2H-indazol-7-yl]ethylsulfanyl}phenyl)propionic Acid]: the melting point lay in the range of 68 to 70 °C.
Then `Cc1cc(OC(C)c2ccc3nn(-c4ccc(C(F)(F)F)cc4)cc3c2)ccc1OC(C)(C)C(=O)O` (racemic) [Example 66, (+/−)-2-Methyl-2-(2-methyl-4-{1-[2-(4-trifluoromethylphenyl)-2H-indazol-5-yl]ethoxy}phenoxy)propionic Acid], with 129 to 131 °C; and `CC(C)(Sc1ccc(OCc2ccc3nn(-c4ccc(C(F)(F)F)cc4)cc3c2)cc1)C(=O)O` [Example 62, 2-Methyl-2-{4-[2-(4-trifluoromethylphenyl)-2H-indazol-5-ylmethoxy]phenylsulfanyl}propionic Acid], with 192 to 194 °C.
`CCc1cc(SCc2cccc3c2cnn3-c2ccc(C(F)(F)F)cc2)ccc1OCC(=O)O` [Example 31, 2-Ethyl-4-[1-(4-trifluoromethylphenyl)-1H-indazol-4-ylmethylsulfanyl]phenoxyacetic Acid]: the melting point was 122 to 124 °C.
Turning to `Cc1cc(SCc2cccc3c2cnn3-c2ccc(C(F)(F)F)cc2)ccc1OCC(=O)O` [Example 30, 2-Methyl-4-[1-(4-trifluoromethylphenyl)-1H-indazol-4-ylmethylsulfanyl]phenoxyacetic Acid], the melting point lay in the range of 132 to 134 °C.
With `Cc1cc(OCCc2cccc3cn(-c4ccc(C(F)(F)F)cc4)nc23)ccc1OC(C)(C)C(=O)O` [Example 48, 2-Methyl-2-(2-methyl-4-{2-[2-(4-trifluoromethylphenyl)-2H-indazol-7-yl]ethoxy}phenoxy)propionic Acid] the figure was 133 to 135 °C.
In the case of `CC(C)(Oc1ccc(SCc2ccc3nn(-c4ccc(C(F)(F)F)cc4)cc3c2)cc1)C(=O)O` [Example 63, 2-Methyl-2-{4-[2-(4-trifluoromethylphenyl)-2H-indazol-5-ylmethylsulfanyl]phenoxy}propionic Acid], the melting point is 159 to 161 °C.
With `Cc1cc(OCc2cccc3cn(-c4ccc(C(F)(F)F)cc4)nc23)ccc1CCC(=O)O` [Example 6, 3-{2-Methyl-4-[2-(4-trifluoromethylphenyl)-2H-indazol-7-ylmethoxy]phenyl}propionic Acid] the figure was 133 to 135 °C; with `CCc1cc(OCc2cccc3cn(-c4ccc(C(F)(F)F)cc4)nc23)ccc1CCC(=O)O` [Example 7, 3-{2-Ethyl-4-[2-(4-trifluoromethylphenyl)-2H-indazol-7-ylmethoxy]phenol}propionic Acid], 157 to 159 °C; with `CC(C)(Oc1ccc(SCc2cccc3c2cnn3-c2ccc(C(F)(F)F)cc2)cc1)C(=O)O` [Example 79, 2-Methyl-2-{4-[1-(4-trifluoromethylphenyl)-1H-indazol-4-ylmethylsulfanyl]phenoxy}propionic Acid], 158 to 160 °C.
Then `CC(C)(Sc1ccc(OCc2cccc3cn(-c4ccc(C(F)(F)F)cc4)nc23)cc1)C(=O)O` [Example 38, 2-Methyl-2-{4-[2-(4-trifluoromethylphenyl)-2H-indazol-7-ylmethoxy]phenylsulfanyl}propionic Acid], with 175 to 177 °C; and `Cc1cc(SCc2cccc3cnn(-c4ccc(C(F)(F)F)cc4)c23)ccc1OC(C)(C)C(=O)O` [Example 98, 2-Methyl-2-{2-methyl-4-[1-(4-trifluoromethylphenyl)-1H-indazol-7-ylmethylsulfanyl]phenoxy}propionic Acid], with 154 to 158 °C; and `CC(Oc1ccc(OC(C)(C)C(=O)O)cc1)c1ccc2nn(-c3ccc(C(F)(F)F)cc3)cc2c1` (racemic) [Example 70, (+/−)-2-Methyl-2-(4-{1-[2-(4-trifluoromethylphenyl)-2H-indazol-5-yl]ethoxy}phenoxy)propionic Acid], with 152 to 154 °C.
With `CC(Oc1ccc(OC(C)(C)C(=O)O)cc1)c1cccc2cn(-c3ccc(C(F)(F)F)cc3)nc12` (racemic) [Example 44, (+/−)-2-Methyl-2-(4-{1-[2-(4-trifluoromethylphenyl)-2H-indazol-7-yl]ethoxy}phenoxy)propionic Acid] the figure was 130 to 132 °C; with `CC(C)(Sc1ccc(OCc2cccc3c2cnn3-c2ccc(C(F)(F)F)cc2)cc1)C(=O)O` [Example 80, 2-Methyl-2-{4-[1-(4-trifluoromethylphenyl)-1H-indazol-4-ylmethoxy]phenylsulfanyl}propionic Acid], 168 to 170 °C; with `Cc1cc(SC(C)c2cccc3c2cnn3-c2ccc(C(F)(F)F)cc2)ccc1OC(C)(C)C(=O)O` (racemic) [Example 83, (+/−)-2-Methyl-2-(2-methyl-4-{1-[1-(4-trifluoromethylphenyl)-1H-indazol-4-yl]ethylsulfanyl}phenoxy)propionic Acid], 85 to 87 °C.
Regarding `Cc1cc(SCc2cccc3cn(-c4ccc(C(F)(F)F)cc4)nc23)ccc1OC(C)(C)C(=O)O` [Example 35, 2-Methyl-2-{2-methyl-4-[2-(4-trifluoromethylphenyl)-2H-indazol-7-ylmethylsulfanyl]phenoxy}propionic Acid], the melting point was 135 to 137 °C.
